Values of other authors, collected in patent US11771641B2, “Method for dyeing keratinous material by means of a premix of aminosilicone and a chromophoric compound” (Henkel AG & Co. KGaA, priority 2019, dated 2023).

Conditions: 25° C.

| Compound | solubility in water | solubility in water (in words) |
| --- | --- | --- |
| O=[N+]([O-])c1cc([N+](=O)[O-])c2ccc(S(=O)(=O)O)cc2c1O [Acid Yellow 9, 8-hydroxy-5,7-dinitro-2-naphthalenesulfonic acid] | above 40 g/L |  |
| O=C(O)C1=NN(c2ccc(S(=O)(=O)O)cc2)C(=O)C1N=Nc1ccc(S(=O)(=O)O)cc1 (stereo not shown) [Acid Yellow 23, 4,5-dihydro-5-oxo-1-(4-sulfophenyl)-4-((4-sulfophenyl)azo)-1H-pyrazole-3-carboxylic acid] |  | highly soluble |
| CCN(Cc1cccc(S(=O)(=O)O)c1)c1ccc(C(=C2C=CC(=[N+](CC)Cc3cccc(S(=O)(=O)O)c3)C=C2)c2ccccc2S(=O)(=O)[O-])cc1 [Acid Blue 9] | more than 20 % by weight |  |
| O=S(=O)(O)c1ccc(N=Nc2c(O)ccc3ccccc23)cc1 [Acid Orange 7, 4-[(2-hydroxy-1-naphthyl)azo]benzene sulphonate] | more than 7 g/L |  |
